# In ChEMBL document CHEMBL1629512, “Ipomotaosides A-D, resin glycosides from the aerial parts of Ipomoea batatas and their inhibitory activity against COX-1 and COX-2” (J Nat Prod, 2010):
# What was measured:
# [1] = target: T1, Prostaglandin G/H synthase 1 (Ovis aries, UniProt P05979); test: Inhibition of sheep COX1-mediated PGE2 production after 2 mins by liquid scintillation counting
# T1 sequence (P05979 whole entry): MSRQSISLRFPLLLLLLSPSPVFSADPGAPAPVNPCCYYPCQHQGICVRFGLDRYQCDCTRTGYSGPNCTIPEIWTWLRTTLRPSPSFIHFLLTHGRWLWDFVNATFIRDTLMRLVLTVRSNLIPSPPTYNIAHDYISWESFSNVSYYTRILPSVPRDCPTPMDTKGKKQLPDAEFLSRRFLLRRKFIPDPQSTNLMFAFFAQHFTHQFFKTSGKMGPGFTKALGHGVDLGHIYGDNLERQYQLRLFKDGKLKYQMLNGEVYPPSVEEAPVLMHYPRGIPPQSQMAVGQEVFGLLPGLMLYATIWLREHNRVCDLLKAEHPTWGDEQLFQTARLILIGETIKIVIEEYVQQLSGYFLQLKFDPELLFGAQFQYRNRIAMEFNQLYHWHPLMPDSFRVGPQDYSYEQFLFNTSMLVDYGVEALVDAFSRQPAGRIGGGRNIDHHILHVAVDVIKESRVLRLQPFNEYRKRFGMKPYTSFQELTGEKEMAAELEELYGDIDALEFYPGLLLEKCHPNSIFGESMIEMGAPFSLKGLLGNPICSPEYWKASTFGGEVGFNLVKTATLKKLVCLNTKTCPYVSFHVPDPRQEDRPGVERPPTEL
# [2] = target: T2, Prostaglandin G/H synthase 2 (Ovis aries, UniProt P79208); test: Inhibition of sheep COX2-mediated PGE2 production after 2 mins by liquid scintillation counting
# T2 sequence (P79208 whole entry): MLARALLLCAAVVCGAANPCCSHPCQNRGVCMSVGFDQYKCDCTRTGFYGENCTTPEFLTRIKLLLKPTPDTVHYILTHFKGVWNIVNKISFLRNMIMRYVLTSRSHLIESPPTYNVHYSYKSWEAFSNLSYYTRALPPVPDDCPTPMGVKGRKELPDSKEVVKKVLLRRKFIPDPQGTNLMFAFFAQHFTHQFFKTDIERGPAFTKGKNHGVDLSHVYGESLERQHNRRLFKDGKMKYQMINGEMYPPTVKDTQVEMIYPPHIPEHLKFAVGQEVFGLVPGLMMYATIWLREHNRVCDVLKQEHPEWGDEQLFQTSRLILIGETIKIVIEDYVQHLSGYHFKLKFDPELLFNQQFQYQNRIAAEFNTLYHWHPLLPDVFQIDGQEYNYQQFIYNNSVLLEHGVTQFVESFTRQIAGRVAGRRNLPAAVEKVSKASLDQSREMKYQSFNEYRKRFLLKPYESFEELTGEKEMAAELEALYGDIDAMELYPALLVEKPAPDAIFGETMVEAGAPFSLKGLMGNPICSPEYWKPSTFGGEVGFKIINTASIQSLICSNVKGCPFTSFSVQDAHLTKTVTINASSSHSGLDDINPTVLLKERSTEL
IC50 ([1]; read-out: IC50),IC50 ([2]; read-out: IC50),IC50 [1],IC50 [2],Compound
9.3 µM,14.5 µM,,,CCCCCCCCCCCC(=O)O[C@@H]1[C@@H](O)[C@@H](OC(=O)/C=C/c2ccccc2)[C@H](O[C@@H]2[C@@H](OC(=O)CCCCCCCCC)[C@@H](O)[C@H](O[C@@H]3[C@@H](O)[C@H]4OC(=O)CCCCCCCCC[C@H](CCCCC)O[C@@H]5O[C@H](C)[C@H](O)[C@H](O)[C@H]5O[C@@H]4O[C@H]3C)O[C@H]2C)O[C@H]1C [IPOMOTAOSIDE A]
132 µM,147 µM,,,CCCCCCCCCCCC(=O)O[C@@H]1[C@@H](O)[C@@H](OC(=O)/C=C/c2ccccc2)[C@H](O[C@@H]2[C@@H](O)[C@@H](OC(=O)CCCCCCCCCCC)[C@H](O[C@@H]3[C@@H](O)[C@H]4OC(=O)CCCCCCCCC[C@H](CCCCC)O[C@@H]5O[C@H](C)[C@H](O)[C@H](O)[C@H]5O[C@@H]4O[C@H]3C)O[C@H]2C)O[C@H]1C [IPOMOTAOSIDE B]
,,Not Active,Not Active,CCCCCCCCCCCC(=O)O[C@@H]1[C@@H](O)[C@@H](OC(=O)/C=C/c2ccccc2)[C@H](O[C@@H]2[C@@H](O)[C@@H](OC(=O)CCCCCCCCC)[C@H](O[C@@H]3[C@H]4OC(=O)CCCCCCCCC[C@H](CCCCC)O[C@@H]5O[C@H](C)[C@H](O)[C@H](O)[C@H]5O[C@H](O[C@H]3C)[C@@H]4O)O[C@H]2C)O[C@H]1C [IPOMOTAOSIDE C]
,,Not Active,Not Active,CCCCCCCCCCCC(=O)O[C@@H]1[C@@H](O)[C@@H](OC(=O)/C=C/c2ccccc2)[C@H](O[C@@H]2[C@@H](OC(=O)CCCCCCCCC)[C@@H](O)[C@H](O[C@@H]3[C@H]4OC(=O)CCCCCCCCC[C@H](CCCCC)O[C@@H]5O[C@H](C)[C@H](O)[C@H](O)[C@H]5O[C@H](O[C@H]3C)[C@@H]4O)O[C@H]2C)O[C@H]1C [IPOMOTAOSIDE D]
